Laboratory results: US6989242B1, “Car receptors and related molecules and methods” (The General Hospital Coporation, priority 1992, dated 2006)

Tests used:
TR/CAR chimera = assay: Cotransfection of TR/CAR chimera with T3RE reporter, effect of added ligands; format: cell-based, human; conditions: JEG3 cells, charcoal-treated serum
Description: To study the function of the putative ligand binding domain of the orphan, a chimeric receptor consisting of the C-terminal D, E and F domains of CAR (i.e., approximately amino acids 76-172, 173-319, and 320-348 of the CAR sequence, respectively) fused to the N-terminal A/B and C domains of TRβ was generated (termed TR/CAR), along with a control hybrid with the A/B and C domains of TR and the D, E and F domain of the glucocorticoid receptor (TR/GR). Vectors expressing these chimeras or the intact TR were cotransfected into JEG3 cells (ATCC Accession No: HTB 36) with reporter plasmids containing T3REs (i.e., of sequence […]; SEQ ID NO: 3) or GREs (from the MMTV promoter as described in Chandler et al., Cell 33:489, 1989) upstream of a reporter gene whose expression could be assayed. Transfections were carried out in the presence of serum treated with activated charcoal to remove T3 as well as other low molecular weight hydrophobic compounds that could act as CAR ligands.

CAR = molecular target: T1, CAR (Homo sapiens, UniProt Q14994); assay: Activation of the RARβ element by CAR in cotransfections, effect of protein kinase A/C pathway treatments; format: cell-based; conditions: cotransfection
T1 construct: expressed in transfected cells
T1 sequence (Q14994 1-348 isoform Q14994-2): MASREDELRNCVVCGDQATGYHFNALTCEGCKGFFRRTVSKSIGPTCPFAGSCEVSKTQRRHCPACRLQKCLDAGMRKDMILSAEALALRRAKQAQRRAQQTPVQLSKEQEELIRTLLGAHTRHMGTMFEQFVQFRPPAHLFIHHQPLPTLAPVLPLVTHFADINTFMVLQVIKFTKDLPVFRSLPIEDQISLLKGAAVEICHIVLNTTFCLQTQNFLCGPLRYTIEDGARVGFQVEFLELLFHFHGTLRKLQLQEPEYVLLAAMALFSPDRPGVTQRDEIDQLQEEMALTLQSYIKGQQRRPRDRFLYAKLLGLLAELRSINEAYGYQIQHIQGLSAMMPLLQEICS
Description: Based on the constitutive activity of the TR/CAR chimera and the similarity of the DNA binding domain of CAR to other members of the superfamily, a number of response elements were screened for activation by the intact orphan in standard cotransfections. […] However, CAR did transactivate two wild type elements, the RAREs from the RARβ gene and the alcohol dehydrogenase (ADH) gene (i.e., […]; SEQ ID NO: 5). RAREs which were not transactivated by CAR included a potent up mutant version of the rat growth hormone gene T3RE/RARE (i.e., of sequence […]; SEQ ID NO:6; in tandem copies with the second copy inverted; described in Brent et al., Mol. Endocrinol. 3:1996, 1989) and the wild type version of the laminin T3RE/RARE (i.e., of sequence […]; SEQ ID NO: 8).
The activation of the RARβ element by CAR is not affected by several treatments that activate or inactivate signal transduction pathways mediated by protein kinases A or C. Thus, CAR activation was not altered by addition of dibutyryl cyclic AMP, by short or long term treatments with phorbol esters, or by cotransfections with vectors expressing the specific protein kinase A inhibitor peptide.

βRARE = assay: Transactivation of βRARE-TK luciferase reporter in cotransfected HepG2 cells; format: cell-based, human; conditions: various cell types and conditions, no added ligand
Description: To determine whether mCAR1 transactivated the βRARE in the absence of retinoids or any other exogenously added ligands, this construct was cotransfected with a luciferase reporter plasmid in which 3 copies of the βRARE were inserted upstream of the TK promoter. To carry out these experiments, HepG2 cells were maintained and transfected using calcium phosphate or DEAE dextran (Ausubel et al., Current Protocols in Molecular Biology, Greene Pub. Assoc.: New York, 1997). mCAR1 and mCAR2 expression vectors were generated by inserting appropriate fragments into the vector CDM8 (Seed, Nature 329:840-842, 1987), as previously described for hCAR. The luciferase reporter plasmid (Gulick et al., Proc. Natl. Acad. Sci. USA 91:11012-11016, 1994) contained three copies of the βRARE upstream of the TK promoter. The reporter plasmids with wild type and mutant versions of the RARβ2 promoter have been described (Moghal et al., Mol. Cell. Biol. 15:3945-3959, 1995). […]
For the TK reporter, pairs of 30 mm dishes were each transfected with 2 μg of reporter and pTKGH, and a total of 2 μg of mammalian expression vector. […] Transfections were carried out in media containing 10% charcoal stripped serum, and luciferase activity was determined using the Promega luciferase assay system as described by the manufacturer. […]

[1] = molecular target: T2, mCAR2 (splice variant lacking exon 8, 107 bp out-of-frame deletion; 6 new residues replace last 78 of mCAR1) (Mus musculus, UniProt O35627-2 O35627-2:1-286); assay: EMSA; alone; conditions: tags: GenBank variant of mCAR1
T2 sequence: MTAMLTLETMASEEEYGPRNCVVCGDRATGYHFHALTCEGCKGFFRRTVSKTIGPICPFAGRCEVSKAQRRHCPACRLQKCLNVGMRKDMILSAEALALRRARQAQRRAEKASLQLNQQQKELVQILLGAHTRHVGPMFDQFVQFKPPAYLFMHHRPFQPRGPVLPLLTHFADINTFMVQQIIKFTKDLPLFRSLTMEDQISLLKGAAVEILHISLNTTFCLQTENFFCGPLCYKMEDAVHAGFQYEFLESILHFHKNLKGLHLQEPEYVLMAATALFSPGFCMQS
Description: (§1) FIG. 7 is a photograph showing DNA binding by mCAR1 and mCAR2. mCAR1, mCAR2, RXR, and RAR proteins were expressed by in vitro translation and used for electrophoretic mobility shift assays with a βRARE probe as indicated. "S" indicates competition with the βRARE oligonucleotide, and "NS" competition with a nonspecific oligonucleotide. Equivalent amounts of mCAR1, mCAR2, and RAR were used in the binding reactions, as determined by ^35S-methionine labeling.
(§2) For DNA binding studies, mCAR1, mCAR2, RAR, and RXR proteins were expressed using coupled in vitro transcription and translation (Promega, Inc.). Standard conditions were used for electrophoretic mobility shift assays with the DR-5 response element from the RARβ2 promoter (the βRARE) as the probe, as described for hCAR (MB67). In these experiments, mCAR1/RXR heterodimers bound with high affinity to the RARE from the RARβ2 isoform promoter (Sucov et al., Proc. Natl. Acad. Sci. USA 87:5392–5396, 1990; de The et al., Nature 343:177–180, 1990) (FIG. 7). […] This lack of mCAR2 binding was consistent with the absence of the C-terminal portion of the ligand/dimerization domain, which is essential for heterodimerization.

RAR + RXR = RAR + RXR (UniProt P10276;P19793 P10276:1-462,P19793:1-462); assay: EMSA; conditions: chain copies: heterodimer (stated)
Sequence of RAR + RXR (P10276 whole entry, chain 1 of 2): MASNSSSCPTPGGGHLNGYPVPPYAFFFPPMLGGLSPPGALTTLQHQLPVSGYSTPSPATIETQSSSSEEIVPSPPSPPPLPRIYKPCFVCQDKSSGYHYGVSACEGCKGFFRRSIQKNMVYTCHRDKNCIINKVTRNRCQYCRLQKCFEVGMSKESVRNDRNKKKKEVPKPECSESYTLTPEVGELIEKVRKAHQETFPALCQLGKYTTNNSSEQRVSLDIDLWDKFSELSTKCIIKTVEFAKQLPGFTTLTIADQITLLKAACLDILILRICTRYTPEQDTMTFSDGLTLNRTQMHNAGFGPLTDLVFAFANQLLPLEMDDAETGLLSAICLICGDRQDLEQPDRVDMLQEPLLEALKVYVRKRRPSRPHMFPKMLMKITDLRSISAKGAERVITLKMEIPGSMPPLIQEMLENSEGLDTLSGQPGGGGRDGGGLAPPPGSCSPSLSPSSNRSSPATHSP
Sequence of RAR + RXR (P19793 whole entry, chain 2 of 2): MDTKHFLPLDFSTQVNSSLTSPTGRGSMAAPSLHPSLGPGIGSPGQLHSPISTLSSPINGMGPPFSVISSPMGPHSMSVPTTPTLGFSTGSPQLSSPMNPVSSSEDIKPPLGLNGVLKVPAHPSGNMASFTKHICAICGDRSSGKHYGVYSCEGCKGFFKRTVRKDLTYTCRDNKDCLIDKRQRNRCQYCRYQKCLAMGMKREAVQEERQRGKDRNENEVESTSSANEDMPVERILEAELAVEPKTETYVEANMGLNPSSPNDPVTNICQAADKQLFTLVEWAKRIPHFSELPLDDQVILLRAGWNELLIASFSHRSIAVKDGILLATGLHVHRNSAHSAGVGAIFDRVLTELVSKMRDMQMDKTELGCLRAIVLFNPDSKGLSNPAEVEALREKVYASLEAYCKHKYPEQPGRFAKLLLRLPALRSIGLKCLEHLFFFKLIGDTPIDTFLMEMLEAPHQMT
Description: as §1, §2

mCAR1 + RXR = mCAR1 + RXR (Mus musculus, UniProt O35627;P19793 O35627:1-358,P19793:1-462); assay: EMSA; high affinity; indistinguishable from RAR/RXR; conditions: chain copies: heterodimer (stated)
Sequence of mCAR1 + RXR (P19793 whole entry, one chain of several): as the sequence (P19793 whole entry, chain 2 of 2) above
Description: as §1, §2

mCAR2 + RXR = mCAR2 + RXR (Mus musculus, UniProt O35627-2;P19793 O35627-2:1-286,P19793:1-462); assay: EMSA; with RXR
Sequence of mCAR2 + RXR (P19793 whole entry, one chain of several): as the sequence (P19793 whole entry, chain 2 of 2) above
Description: as §1, §2

## C[C@H](CCCC(C)(C)O)[C@H]1CC[C@H]2[C@@H]3CC=C4C[C@@H](O)CC[C@]4(C)[C@H]3CC[C@]12C [25-hydroxy cholesterol]
TR/CAR chimera
  effect of added ligand on ligand-independent activation of T3RE reporter by TR/CAR chimera: not altered

## N[C@@H](Cc1cc(I)c(Oc2ccc(O)c(I)c2)c(I)c1)C(=O)O [T3]
TR/CAR chimera
  effect of added ligand on ligand-independent activation of T3RE reporter by TR/CAR chimera: not altered

## CC1=C(/C=C/C(C)=C/C=C/C(C)=C/C(=O)O)C(C)(C)CCC1 [resinoid acid]
TR/CAR chimera
  effect of added ligand on ligand-independent activation of T3RE reporter by TR/CAR chimera: not altered

## C[C@]12CC[C@@H]3c4ccc(O)cc4CC[C@H]3[C@@H]1CC[C@@H]2O [astraddle]
TR/CAR chimera
  effect of added ligand on ligand-independent activation of T3RE reporter by TR/CAR chimera: not altered

## C[C@]12CC[C@H]3[C@@H](CCC4=CC(=O)CC[C@@]43C)[C@@H]1CC[C@@H]2O [testosterone]
TR/CAR chimera
  effect of added ligand on ligand-independent activation of T3RE reporter by TR/CAR chimera: not altered

## CCCC(=O)Nc1ncnc2c1ncn2[C@@H]1O[C@@H]2COP(=O)(O)O[C@H]2[C@H]1OC(=O)CCC [dibutyryl cyclic AMP]
CAR
  effect on CAR activation of the RARβ element: not altered

B1: hCAR: human CAR receptor, 348 amino acids, SEQ ID NO:10 (protein, listed as Homo sapiens)
chain: MASREDELRNCVVCGDQATGYHFNALTCEGCKGFFRRTVSKSIGPTCPFAGSCEVSKTQRRHCPACRLQKCLDAGMRKDMILSAEALALRRAKQAQRRAQQTPVQLSKEQEELIRTLLGAHTRHMGTMFEQFVQFRPPAHLFIHHQPLPTLAPVLPLVTHFADINTFMVLQVIKFTKDLPVFRSLPIEDQISLLKGAAVEICHIVLNTTFCLQTQNFLCGPLRYTIEDGARVGFQVEFLELLFHFHGTLRKLQLQEPEYVLLAAMALFSPDRPGVTQRDEIDQLQEEMALTLQSYIKGQQRRPRDRFLYAKLLGLLAELRSINEAYGYQIQHIQGLSAMMPLLQEICS
βRARE
  transactivation of βRARE reporter: 20-100 fold

B2: betaRARE (RARbeta2 promoter DR-5) (dsDNA)
DNA 1: GGGTAGGGTTCACCGAAAGTTCACTCG
DNA 2: CGAGTGAACTTTCGGTGAACCCTACCC
[1]
  binding result: no binding
RAR + RXR
  binding result: binds
mCAR1 + RXR
  binding result: binds
mCAR2 + RXR
  binding result: no binding
